Results from publication PMC8961646, “Fibroblast Activation Protein Specific Optical Imaging in Non-Small Cell Lung Cancer” (Frontiers in Oncology, 2022).
Non-standard residues stand in square brackets, D forms with d. Residues, ends and D or L forms follow the SMILES beside them. *: point of attachment. 5FAM = O=C1OC2(c3ccc(O)cc3Oc3cc(O)ccc32)c2ccc(C(=O)*)cc21; MethylRed = CN(C)c1ccc(/N=N/c2ccccc2C(=O)*)cc1; AEEA = NCCOCCOCC(=O)O

Assays:
rhFAP = biological target: T1, rhFAP (Homo sapiens, UniProt Q12884); assay: Probe cleavage by recombinant human FAP (fluorescence plate assay, MALDI confirmation); format: biochemical
T1 construct: purchased R&D Systems
T1 sequence (Q12884 26-760 limits assumed): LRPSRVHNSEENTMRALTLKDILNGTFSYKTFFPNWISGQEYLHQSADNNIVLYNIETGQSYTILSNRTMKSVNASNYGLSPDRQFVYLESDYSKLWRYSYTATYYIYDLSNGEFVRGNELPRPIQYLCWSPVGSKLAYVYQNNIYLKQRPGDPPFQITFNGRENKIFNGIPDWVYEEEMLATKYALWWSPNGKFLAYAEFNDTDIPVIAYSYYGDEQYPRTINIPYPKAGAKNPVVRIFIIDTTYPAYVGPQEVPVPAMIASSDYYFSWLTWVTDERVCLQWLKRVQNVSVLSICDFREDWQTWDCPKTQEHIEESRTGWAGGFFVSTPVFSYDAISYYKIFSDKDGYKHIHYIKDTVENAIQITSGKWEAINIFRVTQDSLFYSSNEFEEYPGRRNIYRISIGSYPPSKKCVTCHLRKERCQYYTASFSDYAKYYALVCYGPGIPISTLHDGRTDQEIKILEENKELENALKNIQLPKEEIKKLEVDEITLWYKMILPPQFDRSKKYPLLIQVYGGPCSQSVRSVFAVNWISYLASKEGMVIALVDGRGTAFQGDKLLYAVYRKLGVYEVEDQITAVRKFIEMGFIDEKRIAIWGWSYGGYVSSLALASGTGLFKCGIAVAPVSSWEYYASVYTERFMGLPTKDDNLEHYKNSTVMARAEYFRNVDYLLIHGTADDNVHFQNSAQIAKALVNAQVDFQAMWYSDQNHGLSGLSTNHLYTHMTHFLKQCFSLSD

MMP 9 = MMP 9 (Homo sapiens, UniProt P14780); assay: Probe assessment against recombinant MMP panel; format: biochemical; details: recombinant enzyme, n=2 run in triplicate
[1] = test system: NSCLC patient tissue samples; assay: Fluorescence intensity and lifetime imaging (FLIM) of ex vivo NSCLC tissue; design: species or system human; details: FAP3 5 µM, ex vivo NSCLC samples N=5, imaged at 10-minute intervals to 40 minutes, 488 nm excitation
Description: For imaging solutions, varying concentrations of rhFAP were prepared in blackened eppendorfs and FAP3 to a final concentration of 5µM added and imaged as below. For biological specimens, NSCLC patient tissue samples from surgical resection were used fresh or snap frozen and stored at -80°C until required. Small fragments (approx. 4mm^3) incubated at 37°C in a 96 well plate in phenyl-red free DMEM (Gibco) containing 10% FCS, 1% Penicillin-streptomycin and 1% L-Glutamine. For the tissue fragments to be used as inhibitor controls, we added Talabostat at a dilution of 1:1000. Samples were then imaged using a clinically approved fluorescence lifetime imaging system used in conjunction with an imaging fibre ([30]) providing a 400 x 400 µm field of view. The imaging system incorporates a pulsed supercontinuum laser source, in this case tuned for excitation at 488 nm, with an achromatic confocal laser scanning system and a time-resolved spectrometer. This spectrometer contains a 512 channel single photon avalanche diode (SPAD) sensor ([31]) allowing for the rapid collection of time resolved spectral fluorescence lifetime data. Fluorescence intensity and lifetime images were collected using an image resolution of 160 x 160 pixels over a 498 – 570 nm spectral range with an exposure time of 13 µs per pixel. This led to an imaging rate of ~3 frames per second.
For each condition, the tumour samples were imaged using a fibre placed at the surface of the tissue (baseline), and then again at 10-minute intervals following the additions of equimolar concentrations of probe +/- Inhibitor. For imaging solutions, the fibre was held within the solution and imaged every 5 minutes. Each condition and time-point data for both fluorescence intensity and lifetime were collected. Imaging sequences had non-relevant frames removed, and the entire field of view was analysed. Analysis was undertaken using a bespoke software suite utilising the rapid lifetime determination (RLD) method ([32]). […]

[2] = Probe stability in activated neutrophil lysate
Description: Assays were undertaken in triplicate in blackened 384 well plates on ice prior to spectral reads.
Neutrophils were isolated from peripheral blood of healthy volunteers by discontinuous percoll gradients, as previously described ([29]). Cells were resuspended in PBS (at 10 million cells/ml) and stimulated with 1 µM calcium ionophore, then lysed with 1% Triton-X-100. Lysate was used at 1:1 dilution for experiments, replacing recombinant enzymes in the assay as described above, with PBS as the buffer.
MALDI spectra were acquired on a Bruker Ultraflextreme MALDI-TOF MS. Neutrophil lysate experiment samples were prepared by plating 1 µl of the sample with 1 µl of the matrix solution sinapic acid (10 mg/mL) in H2O/CH3CN/TFA (70/30/0.1).

rhDPPIV = rhDPPIV (Homo sapiens, UniProt P27487); assay: Probe cleavage by recombinant human DPP-IV (exopeptidase activity); details: probe 5 µM, rhDPPIV 0.1 µg/ml, TRIS buffer pH 7.5, read 480/530 nm, n=3 run in triplicate
rhDPPIV, sequence (P27487 29-766 limits assumed): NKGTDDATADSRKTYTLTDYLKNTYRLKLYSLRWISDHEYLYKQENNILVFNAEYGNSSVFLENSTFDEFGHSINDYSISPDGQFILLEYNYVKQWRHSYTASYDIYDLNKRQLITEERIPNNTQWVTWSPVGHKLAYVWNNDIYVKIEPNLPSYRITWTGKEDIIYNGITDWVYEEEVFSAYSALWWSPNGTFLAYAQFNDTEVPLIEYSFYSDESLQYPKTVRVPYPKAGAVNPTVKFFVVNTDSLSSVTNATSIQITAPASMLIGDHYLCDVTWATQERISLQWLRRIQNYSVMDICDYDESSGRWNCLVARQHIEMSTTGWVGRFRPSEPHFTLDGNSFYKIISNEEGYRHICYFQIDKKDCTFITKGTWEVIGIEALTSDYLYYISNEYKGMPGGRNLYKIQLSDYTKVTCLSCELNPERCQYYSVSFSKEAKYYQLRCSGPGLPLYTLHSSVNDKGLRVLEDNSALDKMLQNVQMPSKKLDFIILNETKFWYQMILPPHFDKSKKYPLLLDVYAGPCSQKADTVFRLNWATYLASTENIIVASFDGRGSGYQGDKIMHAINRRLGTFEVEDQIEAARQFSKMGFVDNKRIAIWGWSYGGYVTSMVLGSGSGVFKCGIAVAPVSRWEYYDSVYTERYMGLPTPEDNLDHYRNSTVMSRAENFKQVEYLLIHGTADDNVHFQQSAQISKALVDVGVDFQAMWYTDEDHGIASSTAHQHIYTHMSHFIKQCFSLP
Description: Recombinant human enzymes [rhFAP (R&D Systems), rhPREP (R&D Systems) and rhDPPIV (Biolegend)] were stored in stocks at -70°C and diluted as required to be used at final concentration of 0.1 µg/ml. Enzymes were aliquoted upon receipt from the supplier and new stocks made from a fresh aliquot as required.
Assays were undertaken in triplicate in blackened 384 well plates on ice prior to spectral reads. […] All wells contained a final volume of 20 µl to include buffers, inhibitors (if used), substrates and recombinant human enzymes (at a concentration of 0.1 µg/ml unless otherwise stated). […] Plates were sealed with an optical plate sealer (Biolegend) and were read in a preheated spectrophotometer (Synergy Biotek) in monochromator-based mode at 380/460 nm for control substrates and 480/530 nm for synthesised FAP probes.

MMP 9, sequence (P14780 94-707): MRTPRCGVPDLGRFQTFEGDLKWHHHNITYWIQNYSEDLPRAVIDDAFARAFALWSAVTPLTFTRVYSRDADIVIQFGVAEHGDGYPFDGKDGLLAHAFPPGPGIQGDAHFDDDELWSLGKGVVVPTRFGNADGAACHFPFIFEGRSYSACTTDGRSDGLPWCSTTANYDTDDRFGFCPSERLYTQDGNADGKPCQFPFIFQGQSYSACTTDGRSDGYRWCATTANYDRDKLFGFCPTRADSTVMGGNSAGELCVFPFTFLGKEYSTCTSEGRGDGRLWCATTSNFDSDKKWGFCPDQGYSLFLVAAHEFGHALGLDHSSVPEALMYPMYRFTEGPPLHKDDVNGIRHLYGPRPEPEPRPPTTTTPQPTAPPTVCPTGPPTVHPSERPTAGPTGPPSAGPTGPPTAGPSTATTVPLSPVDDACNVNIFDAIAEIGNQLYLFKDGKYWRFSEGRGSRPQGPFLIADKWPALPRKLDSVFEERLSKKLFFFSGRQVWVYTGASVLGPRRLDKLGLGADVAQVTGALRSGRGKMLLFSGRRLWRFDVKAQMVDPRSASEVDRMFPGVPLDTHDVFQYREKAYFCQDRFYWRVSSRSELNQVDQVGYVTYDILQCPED

## CC(C)[C@H](NC(=O)[C@@H](N)CCCCNC(=O)c1ccccc1/N=N/c1ccc(N(C)C)cc1)C(=O)N[C@H](CO)C(=O)N1CCC[C@H]1C(=O)N[C@@H](CC(N)=O)C(=O)N[C@@H](CCC(N)=O)C(=O)NCC(=O)N[C@@H](CCCCNC(=O)c1ccc2c(c1)C(=O)OC21c2ccc(O)cc2Oc2cc(O)ccc21)C(=O)NCCOCCOCC(=O)N[C@H](CCCCN)C(=O)NCCOCCOCC(=O)N[C@H](CCCCN)C(=O)NCCOCCOCC(=O)N[C@H](CCCCN)C(N)=O [FAP3] (H-K(MethylRed)V[dS]PNQGK(5FAM)[AEEA][dK][AEEA][dK][AEEA][dK]-NH2)
rhFAP; MALDI-TOF read-out, cleavage post proline
  Cleavage of FAP3 by rhFAP confirmed by MALDI: confirming the cleavage
rhFAP; probe 5 µM, rhFAP compared with rhPREP, each 0.1 µg/ml
  FAP specificity (over PREP): demonstrated FAP specificity
MMP 9
  Activity with MMP 9: no activity
[1]; 37°C
  Change in fluorescence intensity in NSCLC tissue: increase in fluorescence intensity
[1]; RLD method
  Change in fluorescence lifetime in NSCLC tissue: change to a longer lifetime signature
[2]; activated human neutrophil lysate, MALDI-TOF read-out, sinapic acid matrix
  Stability in activated neutrophil lysate (MALDI-TOF): remained intact
[2]; human neutrophils 10 million cells/ml, 1 µM calcium ionophore, lysed with 1% Triton-X-100, lysate at 1:1 dilution, PBS, fluorescence 480/530 nm, n=2 run in triplicate
  Stability in activated neutrophil lysate (fluorescence): stable
rhDPPIV
  Cleavage by DPP-IV (exopeptidase activity, fluorescence signal): no cleavage
